Experimental data from patent US11033527B2, “Non-hormonal treatment of the genitourinary syndrome of menopause” (IMMUGEN PHARMA LLC, priority 2018, dated 2021).

What was measured:
vaginal tissue construct = assay: microarray analysis of differential gene expression (Affymetrix Human Gene 1.0 ST arrays), tissues treated for seven days via culture medium; format: cell-based; settings: for VEGFA Fold Change: gene vascular endothelial growth factor A
From the text: The data from the Affymetrix Human Gene 1.0 ST arrays were normalized using the Robust Multiarray Average (RMA) algorithm and a Chip Definition File (CDF) that maps the probes on the array to unique Entrez Gene identifiers. The result is a matrix in which each column corresponds to a sample. The expression values are log 2-transformed by default.
By using a fold change >1.5, an analysis of differentially expressed genes was done to identify those genes which were involved in the cornified envelope, keratinocyte differentiation, cell differentiation, epidermis development, epithelial cell differentiation, junctional proteins and signaling, immune response and innate immune response.

EpiVaginal tissues = assay: macrophage infiltration in treated EpiVaginal tissues (barrier function), four hours in the presence of TNF-α; format: cell-based; settings: vs. 28% into the untreated tissue; macrophages cultured with the tissue for four hours in the presence of TNF-α
From the text: FIG. 1 is a graph showing macrophage infiltration in hormone (estrogen) and L759,633-treated EpiVaginal tissues. L759,633 had the most striking effect on macrophage infiltration: only 6% of cells infiltrated into the tissue past 90 μm (vs. 28% into the untreated tissue, p<0.006 ANOVA). […] U=untreated control; E=estradiol; P=progesterone; and IMG=the cannabinoid L759,633.
Many of the above-noted genes are differentially regulated by estradiol in menopausal tissue. […] With respect to the barrier function, only 6% of macrophages which had been cultured with the tissue for four hours in the presence of TNF-α were capable of infiltrating into the tissue past 90 um (vs. 28% into the untreated tissue, p<0.006 ANOVA). […] This would indicate that the increased gene expression of the proteins involved with cross-linking of the keratin fibers, filagrins and desmosomal cadherins are all contributing to the fortification of the vaginal mucosa which would prevent the infiltration of pathogens and prevent the loss of solutes and water from within the tissue.

## C[C@]12CC[C@@H]3c4ccc(O)cc4CC[C@H]3[C@@H]1CC[C@@H]2O [Estradiol, 17β-estradiol, reference compound]
Vaginal tissue construct
  SPRR2D Fold Change: 2.793 fold
  WFDC12 Fold Change: 3.103 fold
  VEGFA Fold Change: 1.2 fold
Vaginal tissue construct; gene CD74 molecule
  CD74 Expr Fold Change: −1.89 fold
Vaginal tissue construct; gene CD244 molecule
  CD244 Expr Fold Change: 2.355 fold
Vaginal tissue construct; gene Corneodesmosin
  CDSN Fold Change: 3.011 fold
Vaginal tissue construct; gene C−C motif chemokine ligand 28
  CCL28 Expr Fold Change: −1.948 fold
Vaginal tissue construct; gene FYN binding protein 1
  FYB1 Expr Fold Change: −2.225 fold
Vaginal tissue construct; gene Interferon Epsilon
  IFNE Fold Change: 2.1 fold
Vaginal tissue construct; gene NLR family pyrin domain containing 10
  NLRP10 Fold Change: 4.199 fold
Vaginal tissue construct; gene RNAse family
  RNAse7 Fold Change: 3.387 fold
Vaginal tissue construct; gene TNF receptor superfamily member 10c
  TNFRSF10C Expr Fold Change: −2.162 fold
Vaginal tissue construct; gene Transglutaminase 1
  TGM1 Fold Change: 1.406 fold
Vaginal tissue construct; gene Transglutaminase 3
  TGM3 Fold Change: 15.681 fold
Vaginal tissue construct; gene Transglutaminase 5
  TGM5 Fold Change: 1.135 fold
Vaginal tissue construct; gene V-set domain containing T cell activation inhibitor 1
  VTCN1 Expr Fold Change: −2.364 fold
Vaginal tissue construct; gene WAP four-disulfide core domain 5
  WFDC5 Fold Change: 1.2 fold
Vaginal tissue construct; gene arachidonate 12-lipoxygenase, 12R type
  ALOX12B Fold Change: 2.207 fold
Vaginal tissue construct; gene arachidonate lipoxygenase 3
  ALOXE3 Fold Change: 1.371 fold
Vaginal tissue construct; gene colony stimulating factor 2 receptor beta common subunit
  CSF2RB Expr Fold Change: 1.517 fold
Vaginal tissue construct; gene cornifelin
  CNFN Fold Change: 1.3 fold
Vaginal tissue construct; gene dermokine
  DMKN Fold Change: 2.428 fold
Vaginal tissue construct; gene descmocollin 3
  DCS3 Fold Change: 1.2 fold
Vaginal tissue construct; gene desmocollin 1
  DSC1 Fold Change: 1.673 fold
Vaginal tissue construct; gene desmocollin 2
  DSC2 Fold Change: 1.3 fold
Vaginal tissue construct; gene desmoglein 1
  DSG1 Fold Change: 4.964 fold
Vaginal tissue construct; gene filaggrin
  FLG Fold Change: 3.212 fold
Vaginal tissue construct; gene filaggrin family member 2
  FLG2 Fold Change: 2.766 fold
Vaginal tissue construct; gene human keratinocyte proline rich protein
  KPRP Fold Change: 5.557 fold
Vaginal tissue construct; gene interleukin 23 subunit alpha
  IL23A Expr Fold Change: 2.912 fold
Vaginal tissue construct; gene interleukin 36 alpha
  IL36A Expr Fold Change: 3.409 fold
Vaginal tissue construct; gene interleukin 36 receptor antagonist
  IL36RN Expr Fold Change: 2.751 fold
Vaginal tissue construct; gene kallikrein related peptidase 6
  KLK6 Fold Change: 2.769 fold
Vaginal tissue construct; gene kallikrein related peptidase 8
  KLK8 Fold Change: 1.831 fold
Vaginal tissue construct; gene kallikrein related peptidase 10
  KLK10 Fold Change: 2.043 fold
Vaginal tissue construct; gene kallikrein related peptidase 12
  KLK12 Fold Change: 4.018 fold
Vaginal tissue construct; gene kallikrein related peptidase 13
  KLK13 Fold Change: 4.626 fold
Vaginal tissue construct; gene keratin 1
  KRT1 Fold Change: 1.949 fold
Vaginal tissue construct; gene keratin 2
  KRT2 Fold Change: 1.214 fold
Vaginal tissue construct; gene keratin 20
  KRT20 Fold Change: −3.702 fold
Vaginal tissue construct; gene keratin 23
  KRT23 Fold Change: 1.891 fold
Vaginal tissue construct; gene keratin 24
  KRT24 Fold Change: 1.673 fold
Vaginal tissue construct; gene keratinocyte differentiation associated protein
  KRTDAP Fold Change: 13.936 fold
Vaginal tissue construct; gene late cornified envelope 1A
  LCE1A Fold Change: 1.307 fold
Vaginal tissue construct; gene late cornified envelope 1C
  LCE1C Fold Change: 1.262 fold
Vaginal tissue construct; gene late cornified envelope 1F
  LCE1F Fold Change: 1.317 fold
Vaginal tissue construct; gene late cornified envelope 2A
  LCE2A Fold Change: 2.026 fold
Vaginal tissue construct; gene late cornified envelope 2B
  LCE2B Fold Change: 1.89 fold
Vaginal tissue construct; gene late cornified envelope 2D
  LCE2C/LCE2D Fold Change: 1.903 fold
Vaginal tissue construct; gene late cornified envelope 5A
  LCE5A Fold Change: 1.454 fold
Vaginal tissue construct; gene lipase family member M
  LIPM Fold Change: 3.572 fold
Vaginal tissue construct; gene lipase family member N
  LIPN Fold Change: 4.57 fold
Vaginal tissue construct; gene lipin 1
  LIPN1 Fold Change: 2.831 fold
Vaginal tissue construct; gene loricrin
  LOR Fold Change: 1.207 fold
Vaginal tissue construct; gene major histocompatibility complex, class II, DP alpha 1
  HLA-DPA1 Expr Fold Change: −1.8 fold
Vaginal tissue construct; gene major histocompatibility complex, class II, DR alpha
  HLA-DRA Expr Fold Change: −2.234 fold
Vaginal tissue construct; gene major histocompatibility complex, class II, DR beta 6 (pseudogene)
  HLA-DRB6 Expr Fold Change: −2.5 fold
Vaginal tissue construct; gene mucin like 1
  MUCL1 Fold Change: 2.857 fold
Vaginal tissue construct; gene phospholipase A2 group IIF
  PLA2G2F Fold Change: 1.824 fold
Vaginal tissue construct; gene phospholipase A2 group III
  PLA2G3 Fold Change: 1.64 fold
Vaginal tissue construct; gene phospholipase A2 group IVD
  PLA2G4D Fold Change: 2.046 fold
Vaginal tissue construct; gene phospholipase A2 group IVE
  PLA2G4E Fold Change: 2.442 fold
Vaginal tissue construct; gene phospholipase A2 group X
  PLA2G10 Fold Change: −2.948 fold
Vaginal tissue construct; gene serpin family B member 12
  SERPINB12 Fold Change: 1.3 fold
Vaginal tissue construct; gene small proline rich protein 2G
  SPRR2G Fold Change: 4.664 fold
Vaginal tissue construct; gene small proline rich protein 4
  SPRR4 Fold Change: 2.669 fold
Vaginal tissue construct; gene solute carrier family 44 member 4
  SLC44A4 Fold Change: −1.8 fold
Vaginal tissue construct; gene suprabasin
  SBSN Fold Change: 3.449 fold
Vaginal tissue construct; gene toll like receptor 3
  TLR3 Expr Fold Change: −2.081 fold
Vaginal tissue construct; gene transient receptor potential cation channel subfamily V member 3
  TRPV3 Fold Change: 1.6 fold
Vaginal tissue construct; listed as estradiol
  VEGFA Fold Change: 2.2 fold
Vaginal tissue construct; result in words
  HLA-DMA expression: down-regulate
  HLA-DMB expression: down-regulate
EpiVaginal tissues
  macrophages infiltrated into the tissue past 90 μm: 16%
